How the values were obtained:
[1] = test system: primary myelofibrosis (PMF)-patients; assay: Clinical treatment of primary myelofibrosis patients already on Ruxolitinib with added Azacitidine; assay type: in vivo, human
Procedure: PBMCs from peripheral blood of a patient diagnosed with primary myelofibrosis were purified over a ficol destiny gradient as described above following manufacture directions. The cells were plated as to the protocol in this application in 384-well black plastic imaging plates (corning) containing 350 FDA approved drugs in DMSO at 10 uM. The cells were plated at 20.000 cell/well in 50 ul of RPMI supplemented with 5% FCS 0.1% Pen/strep. The cells were incubated overnight and a viability dye was added (fixable live/dead green, Invitrogen following manufacture directions). The cells were fixed and permeablized in PBS containing 2% formaldehyde with 0.1% Tween-x114 for 10 minute at room temperature. The solution was then replaced with PBS containing antibody against CD34 and pSTAT5 (BD biosciences) for 1 hour. The solution was then replaced with PBS containing DAPI at manufacture recommended concentration. The plates were imaged at 10× on an Operetta (PE) automated confocal microscope in four channels using band-pass filter light separation (DAPI, GFP, PE, APC). Using an image analysis pipeline, the sensitivity of the cancer cells (CD34 and pSTAT5 positive) to each drug was compared to the sensitivity on the healthy cells (NOT CD34 and pSTAT5 positive). All results were normalized to the control, DMSO alone. […]

CD34+ or pSTAT5+ cells = assay: Personalized chemotherapy screen in PBMC monolayer of patients with myeloproliferative neoplasm / primary myelofibrosis: viability of CD34+ or pSTAT5+ cells; assay type: cell-based, human
Procedure: Method: PBMCs were cultured, fixed and stained as to protocol outlined in the above examples. 384-well plates were imaged using automated confocal microscope in 4-separate channels. We stained CD34-APC, pSTAT5-PE, GFP viability maker, and a DNA binding nuclear stain. Patient material was cultured on drugs for 18 hours before the addition of the viability marker. These images contained both clonal blasts (almost all CD34+ cells that are present in the peripheral blood,) activated cells (pSTAT5+ cells,) as well as inherently healthy cells from the same donor. […] PBMCs from peripheral blood of a patient diagnosed with primary myelofibrosis were purified over a ficol destiny gradient as described above following manufacture directions. The cells were plated as to the protocol in this application in 384-well black plastic imaging plates (corning) containing 350 FDA approved drugs in DMSO at 10 uM. The cells were plated at 20.000 cell/well in 50 ul of RPMI supplemented with 5% FCS 0.1% Pen/strep. The cells were incubated overnight and a viability dye was added (fixable live/dead green, Invitrogen following manufacture directions). The cells were fixed and permeablized in PBS containing 2% formaldehyde with 0.1% Tween-x114 for 10 minute at room temperature. The solution was then replaced with PBS containing antibody against CD34 and pSTAT5 (BD biosciences) for 1 hour. The solution was then replaced with PBS containing DAPI at manufacture recommended concentration. The plates were imaged at 10× on an Operetta (PE) automated confocal microscope in four channels using band-pass filter light separation (DAPI, GFP, PE, APC). Using an image analysis pipeline, the sensitivity of the cancer cells (CD34 and pSTAT5 positive) to each drug was compared to the sensitivity on the healthy cells (NOT CD34 and pSTAT5 positive). All results were normalized to the control, DMSO alone.

## Nc1ncn([C@@H]2O[C@H](CO)[C@@H](O)[C@H]2O)c(=O)n1 [Azacitidine]
[1]; patient undergoing treatment using Ruxolitinib, Azacitidine additionally used, FIG. 12D
  number of diseased cells in patient: significantly reduced the number of diseased cells
[1]; two PMF patients already on Ruxolitinib (Jakavi) treated with Azacitidine
  clinical response of patients: responding well
CD34+ or pSTAT5+ cells; MPN patient PBMCs, approximately 350 compounds, 18 hours on drugs, FIG. 6
  viability of cells stained for CD34 or pSTAT5: decreased the viability of cells expressing the biomarkers
CD34+ or pSTAT5+ cells; same patient, FIG. 7
  titration: viability of CD34+ cells compared to healthy cells and to DMSO: concentration dependent effects were seen
CD34+ or pSTAT5+ cells; two patients with early PMF or PMF, both treated with Ruxolitinib at the time of Pharmacoscopy, FIG. 10
  rank among compounds reducing percentage of viable cells expressing CD34 or pSTAT5: Top drug or highly enriched drug

— patent US12578331B2, “Monolayer of PBMCs or bone-marrow cells and uses thereof” (Mobius Biotechnology GmbH, priority 2014, dated 2026)
